System: distal small bowel gene expression
Test: RNA sequencing / transcriptional analysis of small bowel 56 days after ICR (2′-FL signature response)
Type: in vivo, mouse
Source text: Luminal small bowel contents were expressed into AllProtect Tissue Reagent (Qiagen Inc, CA). Bacterial DNA was extracted using the AllPrep DNA/RNA Mini Kit (Qiagen Inc, CA), according to kit instructions and prior to sequencing (described below). Small bowel tissue samples for RNA were placed into RNA Later (Life Technologies, NY). RNA extraction was accomplished following Qiagen RNeasy Plus Kit instruction (Qiagen Inc, CA). All nucleic acid samples were then stored at -80 Celsius until sequenced (described below). Transcriptional analysis was carried out on resected and harvested small bowel samples obtained from operated mice taken to 8 weeks. Murine RNA sequencing libraries were prepared from approximately 1.5 μg RNA using the TruSeq RNA Sample Preparation Kit (Illumina, Calif.) and sequenced using the HiSeq 2000 Sequencing System (Illumina, Calif.) with single-end 50 bp reads. Following removal of primers and barcodes, sequences were aligned to the mm10 genome using reference annotations from UCSC (Rosenbloom et al. (2015) Nucleic acids research 43: […]-681) (n=36,186 entities). Aligned reads were quantified and used to compute reads per kilobase per million mapped reads (RPKM); raw counts were then normalized using the DESeq algorithm and each harvested sample was baselined to its own resected sample. A filter was applied to the data, requiring at least three reads in all samples of at least one of the four experimental conditions (n=14,489 entities). The data discussed in this publication have been deposited in NCBI's Gene Expression Omnibus and are accessible through NCBI Gene Expression Omnibus (GEO) Series accession number GSE72590. Edgar et al. (2002) Nucleic acids research 30: 207-210. In order to characterize the impact of 2'-FL supplementation while accounting for the effect of ileoecal resection, a t-test was applied between resected and harvested samples within control and experimental animals. Significance was set at a p-value of ≤0.05 and a fold change of 3, which generated 2,576 differentially regulated entities across two comparisons. Gene set unions and intersections of the control and experimental gene sets were identified through Venn diagrams. From the master list, the gene list specific to animals supplemented with 2'-FL were removed in order to identify genes differentially regulated only by ICR (n=546 entities); this gene set characterizes the adaptive response. Further, the 2'-FL response (n=2,030 entities) was identified by removing the adaptive response signature described above from the master list, leaving only genes regulated by 2'-FL supplementation after ICR which were not found in the non-supplemented adaptive response. Heatmaps were generated using hierarchical clustering with the Pearson's Centered distance metric and the average linkage rule; both entities and samples were clustered. All genomic analyses described above were performed in Strand NGS (Strand Life Sciences, CA). Gene list functional enrichment was initially discovered using ToppFun, a member of the ToppGene Suite. Chen et al. (2009) Nucleic acids research 37: […]-311. No statistical correction was selected. Gene lists were further analyzed using ClueGO, a plugin for Cytoscape designed to decipher functionally grouped gene ontology and pathway annotation networks. Bindea et al. (2009) Bioinformatics 25: 1091-1093. At the time of data analysis, the annotation files were updated from sources to Jan. 1, 2015. “GO Term Fusion” was enabled to manage ontologic term redundancy and network specificity was set to medium. Results were restricted to pathways with p≤0.05 using Benjamini-Hochberg correction and Kappa scoring was set to 0.4. Biocyc annotations were assigned a rectangle, gene ontology biologic processes were assigned an ellipse, and […] annotations were assigned a diamond shape. No meaning was assigned to size or color. […]

[1] = 2′-FL signature response, harvested vs resected small bowel, 8 weeks

C[C@@H]1O[C@@H](O[C@H]2[C@H](O[C@H]3[C@H](O)[C@@H](O)C(O)O[C@@H]3CO)O[C@H](CO)[C@H](O)[C@@H]2O)[C@@H](O)[C@H](O)[C@@H]1O (stereo partly drawn) [2′-FL, 2′-fucosyllactose]
Fgf15 fold change (FC) [1]: −64.6
Fmr1nb fold change (FC) [1]: 12.7
Hemt1 fold change (FC) [1]: 15.4
Irs2 fold change (FC) [1]: −43.6
Map3k12 fold change (FC) [1]: 16.2
Mcpt2 fold change (FC) [1]: 13.4
P2ry4 fold change (FC) [1]: −22.2
Rnf150 fold change (FC) [1]: −20.4
Tmem202 fold change (FC) [1]: 18.0
Ttc28 fold change (FC) [1]: −24.2
Fold Change (Pre- to Post-op) (0610040B10Rik): 4.168
Fold Change (Pre- to Post-op) (1700019L03Rik): 4.251
Fold Change (Pre- to Post-op) (1700020N01Rik): 4.446
Fold Change (Pre- to Post-op) (1810011O10Rik): 4.443
Fold Change (Pre- to Post-op) (1810059H22Rik): 4.23
Fold Change (Pre- to Post-op) (2010308F09Rik): 14.34
Fold Change (Pre- to Post-op) (3300005D01Rik): 4.41
Fold Change (Pre- to Post-op) (9430038I01Rik): 6.474
Fold Change (Pre- to Post-op) (Atp5j2): 4.445
Fold Change (Pre- to Post-op) (Atpif1): 4.145
Fold Change (Pre- to Post-op) (Bambi-ps1): 4.353
Fold Change (Pre- to Post-op) (Casq1): 4.38
Fold Change (Pre- to Post-op) (Cd320): 4.215
Fold Change (Pre- to Post-op) (Coa4): 4.375
Fold Change (Pre- to Post-op) (Cox7a1): 6.411
Fold Change (Pre- to Post-op) (Dgcr6): 4.237
Fold Change (Pre- to Post-op) (Dnah2): 4.392
Fold Change (Pre- to Post-op) (Dynlt1b): 4.376
Fold Change (Pre- to Post-op) (Dynlt1c): 4.148
Fold Change (Pre- to Post-op) (Elof1): 4.343
Fold Change (Pre- to Post-op) (Fam216a): 4.147
Fold Change (Pre- to Post-op) (Gm5485): 4.139
Fold Change (Pre- to Post-op) (Gm6251): 4.383
Fold Change (Pre- to Post-op) (Gm8274): 4.331
Fold Change (Pre- to Post-op) (Gm10433): 4.377
Fold Change (Pre- to Post-op) (Gm10451): 4.182
Fold Change (Pre- to Post-op) (Hemt1): 15.36
Fold Change (Pre- to Post-op) (Hint1): 4.482
Fold Change (Pre- to Post-op) (Hscb): 4.227
Fold Change (Pre- to Post-op) (Hspb2): 4.189
Fold Change (Pre- to Post-op) (Ift20): 4.337
Fold Change (Pre- to Post-op) (Med11): 4.235
Fold Change (Pre- to Post-op) (Mpc2): 4.128
Fold Change (Pre- to Post-op) (Ndufa7): 4.362
Fold Change (Pre- to Post-op) (Ndufaf5): 4.338
Fold Change (Pre- to Post-op) (Ndufb7): 4.217
Fold Change (Pre- to Post-op) (Oaz1): 4.347
Fold Change (Pre- to Post-op) (Ormdl1): 4.184
Fold Change (Pre- to Post-op) (Pstk): 4.142
Fold Change (Pre- to Post-op) (Rabl5): 4.448
Fold Change (Pre- to Post-op) (Rbp1): 4.364
Fold Change (Pre- to Post-op) (Rilpl2): 4.235
Fold Change (Pre- to Post-op) (Rpl34): 4.37
Fold Change (Pre- to Post-op) (Rps15a-ps4): 4.372
Fold Change (Pre- to Post-op) (Rps24): 4.131
Fold Change (Pre- to Post-op) (Rps25): 4.218
Fold Change (Pre- to Post-op) (S100a6): 4.237
Fold Change (Pre- to Post-op) (Sec22a): 4.221
Fold Change (Pre- to Post-op) (Sh2d1b1): 4.118
Fold Change (Pre- to Post-op) (Smim4): 4.229
Fold Change (Pre- to Post-op) (Smim6): 4.424
Fold Change (Pre- to Post-op) (Tm6sf1): 4.173
Fold Change (Pre- to Post-op) (Tnfsf11): 4.335
Fold Change (Pre- to Post-op) (Wfdc17): 4.382
Fold Change (Pre- to Post-op) (Zfp433): 4.119
Fold Change (Pre- to Post-op) (Zswim7): 4.475
Fold Change (Pre- to Post-op) (gene AI414108): −9.671
Fold Change (Pre- to Post-op) (gene Agap2): −9.801
Fold Change (Pre- to Post-op) (gene Ankrd52): −10.58
Fold Change (Pre- to Post-op) (gene Apba1): −18.88
Fold Change (Pre- to Post-op) (gene Atp1a2): −18.47
Fold Change (Pre- to Post-op) (gene Atp1b2): −18.71
Fold Change (Pre- to Post-op) (gene Bcl9l): −10.08
Fold Change (Pre- to Post-op) (gene Car3): −9.901
Fold Change (Pre- to Post-op) (gene Chd7): −11.26
Fold Change (Pre- to Post-op) (gene D830031N03Rik): −15.57
Fold Change (Pre- to Post-op) (gene Ebf1): −10.39
Fold Change (Pre- to Post-op) (gene Fgf15): −64.61
Fold Change (Pre- to Post-op) (gene Flt1): −15.79
Fold Change (Pre- to Post-op) (gene Fscn1): −10.73
Fold Change (Pre- to Post-op) (gene Gltscr1): −13.3
Fold Change (Pre- to Post-op) (gene Irs2): −43.6
Fold Change (Pre- to Post-op) (gene Ldoc1l): −10.25
Fold Change (Pre- to Post-op) (gene Leprel1): −9.903
Fold Change (Pre- to Post-op) (gene Lyst): −9.938
Fold Change (Pre- to Post-op) (gene Nav2): −12.39
Fold Change (Pre- to Post-op) (gene Nfix): −16.561
Fold Change (Pre- to Post-op) (gene Nos1ap): −10.38
Fold Change (Pre- to Post-op) (gene P2ry4): −22.22
Fold Change (Pre- to Post-op) (gene Parvb): −9.684
Fold Change (Pre- to Post-op) (gene Peg3): −15.37
Fold Change (Pre- to Post-op) (gene Plin1): −16.34
Fold Change (Pre- to Post-op) (gene Polr2a): −18.45
Fold Change (Pre- to Post-op) (gene Ptpru): −10.01
Fold Change (Pre- to Post-op) (gene Rgs9): −9.821
Fold Change (Pre- to Post-op) (gene Rnf150): −20.41
Fold Change (Pre- to Post-op) (gene Scd1): −20.28
Fold Change (Pre- to Post-op) (gene Sema3g): −18.02
Fold Change (Pre- to Post-op) (gene Shank3): −15.22
Fold Change (Pre- to Post-op) (gene Soga1): −14.4
Fold Change (Pre- to Post-op) (gene Spen): −14.44
Fold Change (Pre- to Post-op) (gene Tenm3): −14.72
Fold Change (Pre- to Post-op) (gene Tiam1): −15.28
Fold Change (Pre- to Post-op) (gene Tmem151a): −10.06
Fold Change (Pre- to Post-op) (gene Tomm6os): −12.41
Fold Change (Pre- to Post-op) (gene Trerf1): −9.926
Fold Change (Pre- to Post-op) (gene Trim56): −9.711
Fold Change (Pre- to Post-op) (gene Ttc28): −24.22
Fold Change (Pre- to Post-op) (gene Zbed6): −9.794
Fold Change (Pre- to Post-op) (gene Zfp609): −11.22
number of downregulated entities of the 2′-FL signature response (small bowel 56 days after ICR): 1,247

— patent US10857167B2, “Use of oligosaccharide compositions to enhance weight gain” (Children's Hospital Medical Center, priority 2015, dated 2020)
